Reference: patent US20220098203A1 (priority 2018, published 2022)
Like-named read-outs stand apart in the source and are kept apart here.

Assays:
MAT2A homodimer = molecular target: T1, MAT2A homodimer (Homo sapiens, UniProt P31153); experiment: MAT2A biochemical assay (liberated phosphate, PiColorLock Gold); settings: Table 5a; MAT2A biochemical assay; read-out: Enzyme Inhibition
T1 construct: inferred from the Ni sepharose purification and imidazole elution; made in house; host or cells: SF9 insect cells, recombinant baculovirus (Bac to Bac, pFASTBAC1)
T1 sequence (P31153 whole entry): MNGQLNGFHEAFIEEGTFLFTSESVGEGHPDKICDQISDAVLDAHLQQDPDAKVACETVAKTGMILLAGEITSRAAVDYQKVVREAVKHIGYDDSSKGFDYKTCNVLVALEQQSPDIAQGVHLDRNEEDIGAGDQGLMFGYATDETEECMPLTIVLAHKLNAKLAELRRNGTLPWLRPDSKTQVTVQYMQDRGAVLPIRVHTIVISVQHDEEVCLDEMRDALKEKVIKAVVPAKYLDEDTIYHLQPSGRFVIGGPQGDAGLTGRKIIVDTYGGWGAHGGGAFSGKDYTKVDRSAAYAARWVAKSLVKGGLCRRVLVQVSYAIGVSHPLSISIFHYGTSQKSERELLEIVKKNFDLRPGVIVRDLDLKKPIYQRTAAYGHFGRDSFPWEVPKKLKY
In short: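 Baculovirus/Sf9-expressed, Ni-purified MAT2A homodimer preincubated with compound 60 min at 25 °C, then reacted 60 min at 25 °C with substrate mix of 500 μM ATP and 400 μM L-methionine, pH 7.0 (mix, not final levels). Phosphate released with SAM measured by PiColorLock Gold against phosphate standard curve.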

HCT116 MTAP+/+ = experiment: Inhibition of cellular proliferation (Cell Titer Glo), HCT116 MTAP+/+; format: cell-based; settings: Homo sapiens, HCT-116, 96 h, Table 5a, 4 days, read-out: 4 Day Relative Growth Inhibition (MTAP +/+)
Experimental: (§1) Test compound impact on cancer cell growth was assessed by treating cancer cells with compound for 4 days and then measuring proliferation using an ATP-based cell proliferation readout (Cell Titer Glo, Promega Corporation).
(§2) In a typical assay an isogenic pair of HCT116 human colon carcinoma cell lines which vary only in MTAP deletion status (HCT116 MTAP+/+ and HCT116 MTAP−/−) were plated in 96-well dishes at appropriate cell density. Following 24 hours, cells were then treated with the candidate MAT2A inhibitor. […] Compound was then transferred to a working stock plate in cell culture media by adding 5 μL of compound in DMSO to 495 μL of cell culture media. This working stock was then added to cells via a further 5-fold dilution, by adding 25 μL of working stock to 100 μL of cells in culture media. Following compound addition, cells were incubated at 37° C./5% CO2 for 4 days.
(§3) The plate was then covered with aluminum foil and shaken for 15 minutes to ensure complete mixing and full cell lysis. […] This luminescence measure was converted to a proliferation index by subtracting from each data point the ATP luminescence signal measured from a bank (no cells) well and dividing by the ATP luminescence signal measured in 0.2% DMSO control well adjusted for signal in blank well.

HCT116 MTAP-/- = experiment: Inhibition of cellular proliferation (Cell Titer Glo), HCT116 MTAP-/-; format: cell-based, human; settings: 4 days, read-out: 4 Day Relative Growth Inhibition (MTAP −/−)
Experimental: as §1, §2, §3

[1] = tested on: SAM in HCT116 MTAP-deleted cells; experiment: Cellular assay of target engagement (SAM), LC-MS/MS; format: cell-based, human; settings: 72 h, read-out: Cell 72 h SAM Inhibition (MTAP −/−)
Experimental: Measurement of MAT2A activity in cells was made by direct quantitation of the abundance of the product of its enzymatic activity, SAM. Cancer cells were treated with candidate MAT2A inhibitors for a suitable incubation period, and the cells were then lysed using a reagent which quenched any further enzyme activity. Soluble metabolites including SAM were collected and SAM itself was directly measured from the lysate using quantitative LC-MS/MS.
A typical assay was performed using an HCT116 human colon carcinoma cell line which was genetically engineered to delete the MTAP gene (commercially available from Horizon Discovery). […] Cells were plated in 96-well dishes at appropriate cell density. Following 24 hours, cells were then treated with the candidate MAT2A inhibitor. […] Compound was then transferred to a working stock plate in cell culture media by adding 5 μL of compound in DMSO to 495 μL of cell culture media. This working stock was then added to cells via a further 5-fold dilution, by adding 25 μL of working stock to 100 μL of cells in culture media. Following compound addition, cells were incubated at 37° C./5% CO2 for 72 hrs.
To quantitate SAM levels following compound treatment, cells were gently washed once in ammonium carbonate buffer (75 mM at pH 7.4), placed on dry ice, and lysed with metabolite extraction buffer (80% cold methanol and 20% water (v/v) with acetic acid at 1M final concentration with 200 ng/mL deuterated d3-SAM as internal control). Following centrifugation at 4° C. at 3,200 rpm for 30 minutes, the supernatant was collected and stored at −80° C. until analysis by Liquid Chromatography with tandem Mass Spectrometry (LC-MS/MS). LC-MS/MS analysis was performed using an API6500 Mass Spectrometer (Sciex, Framingham, Mass., USA) operating in positive ion spray mode and equipped with a Waters UPLC Acquity (Waters, Milford, Mass., USA) BEH Amide column.

[2] = Homo sapiens, HCT-116, 96 h, Table 5a
[3] = Homo sapiens, HCT-116, Table 5a
[4] = Table 6, select pairs of compounds

Row | IC50 (MAT2A homodimer) | IC50 (HCT116 MTAP+/+) | IC50 (HCT116 MTAP-/-; [2]) | IC50 [1, 3] | IC50 (HCT116 MTAP-/-; [4]) | IC50 [1, 4] | Structure (SMILES)
1 | < 0.1 µM | > 1 µM | 0.1 to 1 µM | 0.1 to 1 µM |  |  | COc1ccc(N2C(=O)N(c3ccc4nn(C)cc4c3)Cc3ccc(NC4CCC4)nc32)cc1 [Example 162, 7-(cyclobutylamino)-1-(4-methoxyphenyl)-3-(2-methyl-2H-indazol-5-yl)-3,4-dihydropyrido[2,3-d]pyrimidin-2(1H)-one]
2 | < 0.1 µM | > 1 µM | 0.1 to 1 µM | 0.1 to 1 µM |  |  | [2H]C([2H])([2H])Oc1ccc(N2C(=O)N(c3ccc4nn(C)cc4c3)Cc3ccc(OCCF)nc32)cc1 [Example 163, 7-(2-fluoroethoxy)-1-(4-methoxy-d3-phenyl)-3-(2-methyl-2H-indazol-5-yl)-3,4-dihydropyrido[2,3-d]pyrimidin-2(1H)-one]
3 | < 0.1 µM | > 1 µM | 0.1 to 1 µM | 0.1 to 1 µM |  |  | [2H]C([2H])([2H])Oc1ccc(N2C(=O)N(c3ccc4nn(C)cc4c3)Cc3ccc(OCC4CC4)nc32)cc1 [Example 164, 7-(cyclopropylmethoxy)-1-(4-methoxy-d3-phenyl)-3-(2-methyl-2H-indazol-5-yl)-3,4-dihydropyrido[2,3-d]pyrimidin-2(1H)-one]
4 | < 0.1 µM | > 1 µM | 0.1 to 1 µM | 0.1 to 1 µM |  |  | [2H]C([2H])([2H])Oc1ccc(N2C(=O)N(c3ccc4nn(C)cc4c3)Cc3ccc(OCCC)nc32)cc1 [Example 165, 1-(4-methoxy-d3-phenyl)-3-(2-methyl-2H-indazol-5-yl)-7-propoxy-3,4-dihydropyrido[2,3-d]pyrimidin-2(1H)-one]
5 | < 0.1 µM | > 1 µM | < 0.1 µM | < 0.1 µM |  |  | [2H]C([2H])([2H])Oc1ccc(N2C(=O)N(c3ccc4nn(C)cc4c3)Cc3ccc(OC(C)C)nc32)cc1 [Example 167, 7-isopropoxy-1-(4-methoxy-d3-phenyl)-3-(2-methyl-2H-indazol-5-yl)-3,4-dihydropyrido[2,3-d]pyrimidin-2(1H)-one]
6 | < 0.1 µM | > 1 µM | < 0.1 µM | < 0.1 µM |  |  | [2H]C([2H])([2H])Oc1ccc(N2C(=O)N(c3ccc4nn(C)cc4c3)Cc3ccc(OC(C)C(F)F)nc32)cc1 (centres unmarked) [Example 168, 7-((1,1-difluoropropan-2-yl)oxy)-1-(4-methoxy-d3-phenyl)-3-(2-methyl-2H-indazol-5-yl)-3,4-dihydropyrido[2,3-d]pyrimidin-2(1H)-one]
7 | < 0.1 µM | > 1 µM | < 0.1 µM | < 0.1 µM |  |  | Cn1cc2cc(N3Cc4ccc(OCC(F)F)nc4N(c4ccc5[nH]ccc5c4)C3=O)ccc2n1 [Example 169, 7-(2,2-difluoroethoxy)-1-(1H-indol-5-yl)-3-(2-methyl-2H-indazol-5-yl)-3,4-dihydropyrido[2,3-d]pyrimidin-2(1H)-one]

The next lines start with the compound.

Row | Structure (SMILES) | IC50 (MAT2A homodimer) | IC50 (HCT116 MTAP+/+) | IC50 (HCT116 MTAP-/-; [2]) | IC50 [1, 3] | IC50 (HCT116 MTAP-/-; [4]) | IC50 [1, 4]
8 | CCOc1ccc2c(n1)N(c1ccc(OC)cc1)C(=O)N(c1ccc3nn(C)cc3c1)C2 [Example 143, 7-ethoxy-1-(4-methoxyphenyl)-3-(2-methyl-2H-indazol-5-yl)-3,4-dihydropyrido[2,3-d]pyrimidin-2(1H)-one] | < 0.1 µM | > 1 µM | 0.1 to 1 µM | < 0.1 µM |  | 
9 | Cn1cc2cc(N3Cc4ccc(OC5CC5)nc4N(c4ccc(OC(F)F)cc4)C3=O)ccc2n1 [Example 144, 7-cyclopropoxy-1-(4-(difluoromethoxy)phenyl)-3-(2-methyl-2H-indazol-5-yl)-3,4-dihydropyrido[2,3-d]pyrimidin-2(1H)-one] | < 0.1 µM | > 1 µM | 0.1 to 1 µM | < 0.1 µM |  | 
10 | Cn1cc2cc(N3Cc4ccc(OCC(F)F)nc4N(c4ccc(OC(F)F)cc4)C3=O)ccc2n1 [Example 145, 7-(2,2-difluoroethoxy)-1-(4-(difluoromethoxy)phenyl)-3-(2-methyl-2H-indazol-5-yl)-3,4-dihydropyrido[2,3-d]pyrimidin-2(1H)-one] | < 0.1 µM | > 1 µM | < 0.1 µM | < 0.1 µM |  | 
11 | CCOc1ccc2c(n1)N(c1ccc(Cl)cc1)C(=O)N(c1ccc3nn(C)cc3c1)C2 [Example 146, 1-(4-chlorophenyl)-7-ethoxy-3-(2-methyl-2H-indazol-5-yl)-3,4-dihydropyrido[2,3-d]pyrimidin-2(1H)-one] | < 0.1 µM | > 1 µM | 0.1 to 1 µM | < 0.1 µM |  | 
12 | CCOc1ccc2c(n1)N(c1ccc(OC(F)(F)F)nc1)C(=O)N(c1ccc3nn(C)cc3c1)C2 [Example 147, 7-ethoxy-3-(2-methyl-2H-indazol-5-yl)-1-(6-(trifluoromethoxy)pyridin-3-yl)-3,4-dihydropyrido[2,3-d]pyrimidin-2(1H)-one] | < 0.1 µM | > 1 µM | 0.1 to 1 µM | 0.1 to 1 µM |  | 
13 | CCOc1ccc2c(n1)N(c1ccc(C(F)F)nc1)C(=O)N(c1ccc3nn(C)cc3c1)C2 [Example 149, 1-(6-(difluoromethyl)pyridin-3-yl)-7-ethoxy-3-(2-methyl-2H-indazol-5-yl)-3,4-dihydropyrido[2,3-d]pyrimidin-2(1H)-one] | < 0.1 µM | > 1 µM | < 0.1 µM | 0.1 to 1 µM |  | 
14 | CCOc1ccc2c(n1)N(c1ccc(C3CC3)nc1)C(=O)N(c1ccc3nn(C)cc3c1)C2 [Example 152, 1-(6-cyclopropylpyridin-3-yl)-7-ethoxy-3-(2-methyl-2H-indazol-5-yl)-3,4-dihydropyrido[2,3-d]pyrimidin-2(1H)-one] | < 0.1 µM | > 1 µM | 0.1 to 1 µM | < 0.1 µM |  | 
15 | CCOc1ccc2c(n1)N(c1ccc(-c3nnc[nH]3)cc1)C(=O)N(c1ccc3nn(C)cc3c1)C2 [Example 153, 1-(4-(4H-1,2,4-triazol-3-yl)phenyl)-7-ethoxy-3-(2-methyl-2H-indazol-5-yl)-3,4-dihydropyrido[2,3-d]pyrimidin-2(1H)-one] | < 0.1 µM | > 1 µM | < 0.1 µM | < 0.1 µM |  | 
16 | CCOc1ccc2c(n1)N(c1ccc(-c3nnc[nH]3)cc1)C(=O)N(c1ccc3ncn(C)c3c1)C2 [Example 154, 1-(4-(4H-1,2,4-triazol-3-yl)phenyl)-7-ethoxy-3-(1-methyl-1H-benzo[d]imidazol-6-yl)-3,4-dihydropyrido[2,3-d]pyrimidin-2(1H)-one] | < 0.1 µM | 0.1 to 1 µM | 0.1 to 1 µM | < 0.1 µM |  | 
17 | CCOc1ccc2c(n1)N(c1ccc(-c3nnc[nH]3)cc1)C(=O)N(c1ccc(OC)cc1)C2 [Example 155, 1-(4-(4H-1,2,4-triazol-3-yl)phenyl)-7-ethoxy-3-(4-methoxyphenyl)-3,4-dihydropyrido[2,3-d]pyrimidin-2(1H)-one] | < 0.1 µM | 0.1 to 1 µM | 0.1 to 1 µM | < 0.1 µM |  | 
18 | COc1ccc(N2C(=O)N(c3ccc4nn(C)cc4c3)Cc3ccc(SCC(F)(F)F)nc32)cc1 [Example 161, 1-(4-methoxyphenyl)-3-(2-methyl-2H-indazol-5-yl)-7-((2,2,2-trifluoroethyl)thio)-3,4-dihydropyrido[2,3-d]pyrimidin-2(1H)-one] | < 0.1 µM | > 1 µM | 0.1 to 1 µM | 0.1 to 1 µM | 0.1 to 1 µM | 0.1 to 1 µM
